Results reported in US20260041653A1, “AN HDAC INHIBITOR FOR TREATING CANCER WITH A MODIFIED STK11 ACTIVITY OR EXPRESSION” (Tango Therapeutics, Inc., priority 2022, published 2026).
Values joined by “and” are separate entries in the source; they are usually repeats but may differ in a detail not shown here. Equal values may be shown once.

Key:
[1] = Free fraction in mouse plasma; type: in vitro ADME; details: C57BL/6 mouse plasma
[2] = test system: CT26 parental tumor (KRAS G12D); experiment: Anti-tumor efficacy in CT26 parental (wild-type) colon carcinoma model; type: in vivo, mouse
Description: (§1) An in vivo anti-tumor efficacy of combination treatment of Anti-PD1 and Compound I in a CT26 mouse model was evaluated. CT26 is a colon carcinoma cell line with an endogenous KRAS G12D mutation. The experiment was performed in the parental/wild type line and in a line engineered with an STK11 knock-out (CT26_STK11KO) resulting in an anti-PD1 resistant model with lower CD8+ T cell infiltration.
In each of the experiments, the animals (8/group) were divided into four groups. Group I was treated with a control antibody Anti-IgG2, group 2 was treated with Compound I 75 mg/kg, group 3 was treated with anti-PD1 antibody, and group 4 was treated with Compound I 75 mg/kg and anti-PD1 antibody. Tumor volume and survival was monitored over the course of treatment. For the CT26_STK11KO model, the tumor volume was plotted by individual animal (FIG. 15A) and by treatment group (FIG. 15B). Survival was plotted by treatment group (FIG. 15C).
For the CT26 parental model, the tumor volume was plotted by treatment group (FIG. 15D) and by individual animal for groups 1 and 4 (FIG. 15E).
as §1, with “anti-CTLA4” for “Anti-PD1”, “anti-CTLA4-resistant model.” for “anti-PD1 resistant model with lower CD8+ T cell infiltration.”
An in vivo anti-tumor efficacy of double combination treatment of Anti-CTLA4 and Compound I in a CT26 syngeneic model was performed. CT26 is a colon carcinoma cell line. The experiment was also performed with an STK11-null CT26 model, this model is CTLA4 resistant.
There were 8 mice per group. Group I was treated with a control antibody Anti-IgG2, group 2 was treated with Compound I 75 mg/kg, group 3 was treated with anti-CTLA4 antibody, and group 4 was treated with Compound I 75 mg/kg and anti-CTLA4 antibody. Tumor volume was monitored over the course of treatment. The tumor volume was plotted by treatment group (FIG. 16A), and the individual animals were plotted for group 1 and group 4 (FIG. 16B), for the parental model. The tumor volume was plotted by treatment group (FIG. 16C), and the individual animals were plotted for group 1 and group 4 (FIG. 16D), for the STK11 knockout model.

[3] = Caverage in mice with STK11-deleted MC38 tumors; type: in vivo, mouse; details: doses used in FIG. 12B and 12C
[4] = Tolerated and efficacious dose ranges in vivo
Description: Briefly, a colony forming unit assay was performed in vitro to evaluate the impact of HDAC inhibitors on the viability of erythroid and myeloid cells. Cells were treated with a dose response of each compound for 14 days. Cell colonies were quantified at the end of the experiment and compared to a solvent control. The efficacious dose range of Compound I was also plotted (the range was between 3 mg/kg and 75 mg/kg) (FIG. 12A). The IC50s for each compound were calculated from the erythroid and myeloid colony formation unit assay. These IC50s were normalized to the compound's potency against HDAC1 in the cellular NanoBRET assay to allow for head-to-head compound comparison (Table 4-1).
Compound I concentrations to HDAC1 or HDAC3 inhibition in vivo were plotted in FIG. 12D. Shaded boxes indicate tolerated and efficacious dose ranges of Compound I. Non-tolerated exposures were over 150 mg/kg.

acetyl-histone H2B = experiment: PK/PD study, acetyl-histone H2B in PBMC by flow cytometry; type: in vivo, C57BL/6 mice; details: 300 mg/kg QD, 2 days; 24 hours after last dose; vs vehicle control
Description: (§2) In a separate PK/PD study, MC38 tumor-bearing female C57BL/6 mice (12/group) were assigned to treatment groups with similar mean tumor volumes of approximately 430 mm^3 and treated with vehicle (5% N,N-dimethylacetamide [DMA]+30% polyethylene glycol [PEG] 400+65% of 30% 2-hydroxypropyl-beta-cyclodextrin [HP-β-CD] in water) or Compound I at 30, 100, and 300 mg/kg once daily (QD) for 2 days. Plasma samples were collected at 1, 2, 8 and 24 hours after last dose and analyzed for Compound I concentrations. Peripheral blood mononuclear cells (PBMC) and tumor samples were harvested at 2, 8, and 24 hours after last dose. The PBMC samples were processed for determination of mean florescent level of acetyl-histone H2B by flow cytometry. Tumor samples were processed for determination of protein levels of acetyl-histone H3 by Western blot.

CYP3A4/5 = experiment: Metabolism by recombinant human CYP3A4/5; type: in vitro ADME; details: read-out: terminal half life (T1/2), rh CYP3A4/5
Description: (§3) Drug metabolizing enzymes involved in the biotransformation of Compound I were investigated using human liver microsomes (HLM) and recombinant enzymes. Compound I was stable in HLMs (>93% remaining after 240 minutes of incubation with HLM protein concentration at 0.6 mg/ml). CYP selective inhibitor experiments were not performed due to lack of appreciable Compound I turnover.

Pharmacokinetics in rats = type: in vivo, Sprague Dawley rats; details: rat, plasma
Description: The pharmacokinetics (PK) of Compound I in rats was determined following single IV bolus of 1 mg/kg in 20% wt/vol HPβCD, 1% vol/vol DMSO in saline or single PO dose of 3 mg/kg in 0.5% methylcellulose (MC) in water to male Sprague Dawley rats (fed for IV, fasted for PO). Plasma samples were collected from 3 animals/group at 0.05, 0.25, 0.5, 1, 2, 3, 4 8, and 24 hours after dosing.

[5] = PK/PD study, body weight and clinical signs; type: in vivo, C57BL/6 mice; details: 30, 100, 300 mg/kg QD for 2 days
Description: as §2

A549 cells = experiment: Nanostring PanCancer IO360 profiling of A549 cells; type: cell-based; details: 96 hours; dose that increased H3K9Ac two-fold; vs vorinostat and domatinostat
Description: In this example, the gene expression changes between CoreDAC and other HDAC inhibitors was determined by Nanostring profiling.
Cells were harvested and Nanostring profiling using the PanCancer IO360 panel was performed on the three treatment groups (FIGS. 11A-C). The top three ranked gene ontology groups for each compound as determined from the Nanostring data in (FIGS. 11A-C top panel) were determined using the nSolver software (FIGS. 11A-C bottom panel).

CYP2C9 = CYP2C9 (Homo sapiens, UniProt P11712); experiment: Metabolism by recombinant human CYP2C9; type: in vitro ADME; details: read-out: terminal half life (T1/2), rh CYP2C9
Chain of CYP2C9 (P11712 whole entry): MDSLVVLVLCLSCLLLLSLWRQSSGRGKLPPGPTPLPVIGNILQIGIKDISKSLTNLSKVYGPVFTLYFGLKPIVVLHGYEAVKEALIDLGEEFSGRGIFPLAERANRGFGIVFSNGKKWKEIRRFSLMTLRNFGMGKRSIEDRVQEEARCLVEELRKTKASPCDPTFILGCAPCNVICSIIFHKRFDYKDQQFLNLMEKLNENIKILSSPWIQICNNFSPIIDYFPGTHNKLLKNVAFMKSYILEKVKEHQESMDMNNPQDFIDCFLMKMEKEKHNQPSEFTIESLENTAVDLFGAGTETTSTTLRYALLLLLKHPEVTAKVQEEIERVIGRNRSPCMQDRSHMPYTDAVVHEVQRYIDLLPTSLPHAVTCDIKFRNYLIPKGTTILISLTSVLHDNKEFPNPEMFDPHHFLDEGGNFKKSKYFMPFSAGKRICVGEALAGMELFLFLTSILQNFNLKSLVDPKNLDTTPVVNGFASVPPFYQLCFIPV
Description: as §3

[6] = Compound I 75 mg/kg QD alone, second of two values (two experiments, Examples 14 and 15)
[7] = Compound I 75 mg/kg QD, antibodies 10 mg/kg, for Compound I alone the first of two printed values

In the case of `C[S@@](=N)(=O)c1ccc(C(=O)Nc2cc(-c3ccc(F)cc3)ccc2N)cc1` [Compound I, (R)—N-(4-amino-4′-fluoro-[1,1′-biphenyl]-3-yl)-4-(S-methylsulfonimidoyl)benzamide], the fraction unbound [1] was 0.101, the ORR % [2, 6] was 63/63% and the TGI % [2, 6] was 66%. The ORR % [2, 7] was 63/63%, the TGI % [2, 7] was 84% and the “Cavg, u” value [3] was 192 nM. For the same molecule, the “Fold of HDAC1 IC50 (Caverage coverage)” value [3] was 3.5 fold, the Non-tolerated exposures [4] was “over 150 mg/kg” and the “maximal induction of histone acetylation in PBMC” value (acetyl-histone H2B) was 8 fold. It also gave a half-life (CYP3A4/5) of over 1 h, a half-life (Pharmacokinetics in rats; male, Sprague Dawley) of 4.8 h and a clearance (Pharmacokinetics in rats; male, Sprague Dawley, intravenous, 1 mg/kg, read-out: CL, p) of 7.7 mL/min/kg. The bioavailability (Pharmacokinetics in rats; male Sprague Dawley rats, PO 3 mg/kg in 0.5% MC, fasted, IV 1 mg/kg, read-out: PO bioavailability (% F)) was 95.4% and 95%, the “body weight loss and clinical signs” value [5] was “No obvious body weight loss of more than 5% or adverse clinical signs” and the “number of genes regulated” value (A549 cells) was “regulates the expression of fewer genes”. For the same molecule, the half-life (CYP2C9) was over 1 h.
